This is an account of results in patent US20090036512A1, “FUNGICIDAL ACTIVE COMPOUND COMBINATION” (priority 2005, published 2009).

The subject of this test is Leptosphaeria nodorum. Nature of the test: Leptosphaeria nodorum test (wheat)/protective. The test is classed as in vivo. The following applies: Parastagonospora nodorum, 240 h, protective, evaluation 10 days after inoculation. The procedure:
Leptosphaeria nodorum test (wheat)/protective Solvent: 50 parts by weight of N,N-dimethylacetamide Emulsifier: 1 part by weight of alkylaryl polyglycol ether To prepare a suitable preparation of active compound, 1 part by weight of active compound or active compound combination is mixed with the stated amounts of solvents and emulsifier, and the concentrate is diluted with water to the desired concentration, or a commercial formulation of active compound or active compound combination with water is diluted with water to the desired concentration. To test for protective activity, young plants are sprayed with the active compound preparation at the stated application rate. After the spray coating has dried on, the plants are sprayed with a spore suspension of Leptosphaeria nodorum. The plants remain in an incubation cabin at 20° C. and 100% relative atmospheric humidity for 48 hours. The plants are placed in a greenhouse at a temperature of about 20° C. and a relative atmospheric humidity of 80%. Evaluation is carried out 10 days after inoculation. Here, 0% means an efficacy which corresponds to that of the control, whereas an efficacy of 100% means that no infection is observed.

On to `O=C1C2CC=CCC2C(=O)N1SC(Cl)(Cl)Cl` (stereo not shown) [Captan, 3a,4,7,7a-tetrahydro-2-[(trichloromethyl)thio]-1H-isoindole-1,3(2H)-dione], for which the Emax at 82.5 ppm (application rate 82.5 ppm, read-out: % efficacy (converted)) was 50%. For the same compound, under “application rate 375 ppm, read-out: % efficacy”, the Emax at 375 ppm was determined as 25%. In addition, the Emax at 500 ppm (application rate 500 ppm, read-out: % efficacy) is 25%.
In the case of `CON=C(C(=O)OC)c1ccccc1CO/N=C(\C)c1cccc(C(F)(F)F)c1` [Trifloxystrobin, 2-[α-{[(α-methyl-3-trifluoromethyl-benzyl)imino]-oxy}-o-tolyl]-glyoxylic acid methyl ester O-methyloxime], the Emax at 25 ppm (application rate 25 ppm, read-out: % efficacy) is 50%.
